Laboratory results as given in ChEMBL document CHEMBL4014274, “Oligothiophene compounds inhibit the membrane fusion between H5N1 avian influenza virus and the endosome of host cell” (Eur J Med Chem, 2017).

Legend:
[1] = Inhibition of Influenza A virus (A/Thailand/Kan353/2004(H5N1)) hemagglutinin expressed in human 293T cells coexpressing NA assessed as reduction in HA mediated viral membrane fusion with MDCK cells pretreated for 30 mins with virus followed by infection in MDCK cells measured after 48 hrs by luciferase reporter gene assay; format: cell-based
[2] = Cytotoxicity against MDCK cells after 2 days by MTT assay; format: cell-based, Canis lupus familiaris; settings: dog
[3] = Inhibition of Influenza A virus (A/Puerto Rico/8/34(H1N1)) neuraminidase activity infected in MDCK cells assessed as reduction in progeny production using 2-(4-Methylumbelliferyl)-a-D-N-acetylneuraminic acid sodium salt as substrate pretreated for 1 hr with virus followed by 1 hr infection in MDCK cells measured after 48 hrs by fluorescence assay; format: cell-based, Influenza A virus (A/Puerto Rico/8/1934(H1N1))
[4] = system: Influenza A virus (A/Thailand/Kan353/2004(H5N1)); test: Potency index, ratio of CL-385319 IC50 to compound IC50 for inhibition of Influenza A virus (A/Thailand/Kan353/2004(H5N1)) hemagglutinin expressed in human 293T cells coexpressing NA assessed as reduction in HA mediated viral membrane fusion with MDCK cells; format: cell-based
[5] = Influenza A virus, read-out: IC50

Question: Which IC50 [1] does the source give for `O=C(NCCCCc1ccc(CCCCNC(=O)c2cc(F)cc(C(F)(F)F)c2)s1)c1cc(F)cc(C(F)(F)F)c1` here?
Answer: The IC50 was “Not Active”.

Question: With `NCCCCc1ccc(CCCCN)s1` as the molecule, how does the IC50 [1] read?
Answer: Its IC50 is “Not Active”.

Question: Which CC50 at 48 h [2] does the source give for `BrCCCc1ccc(-c2ccc(-c3cccs3)s2)s1` here?
Answer: Its CC50 at 48 h is 35.3 µM.

Question: And the IC50 [1, 5]?
Answer: The IC50 was 12.5 µM.

Question: For `NCCCCc1ccc(-c2ccc(-c3ccc(-c4ccc(CCCCN)s4)s3)s2)s1`, which IC50 [1] is on record?
Answer: Its IC50 is “Not Active”.

Question: For `NCCCc1ccc(-c2ccc(-c3ccc(CCCN)s3)s2)s1`, which CC50 at 48 h [2] is on record?
Answer: The CC50 at 48 h was > 200 µM.

Question: What about the IC50 [1, 5] of the same molecule?
Answer: Its IC50 is 4.15 µM.

Question: Which IC50 [1] does the source give for `BrCCCCc1ccc(-c2ccc(-c3ccc(-c4cccs4)s3)s2)s1` here?
Answer: The IC50 was “Not Active”.

Question: For `NCCCc1ccc(-c2ccc(-c3cccs3)s2)s1`, which CC50 at 48 h [2] is on record?
Answer: Its CC50 at 48 h is 18.9 µM.

Question: What about the IC50 [1, 5] of the same molecule?
Answer: The IC50 was 2.88 µM.

Question: And the IC50 [3]?
Answer: Its IC50 is 1.12 µM.

Question: With `O=C(NCCCc1ccc(-c2ccc(-c3ccc(CCCNC(=O)c4cc(F)cc(C(F)(F)F)c4)s3)s2)s1)c1cc(F)cc(C(F)(F)F)c1` as the molecule, how does the IC50 [1] read?
Answer: Its IC50 is “Not Active”.

Question: Which IC50 [1] does the source give for `BrCCCCc1ccc(CCCCBr)s1` here?
Answer: Its IC50 is “Not Active”.

Question: Which CC50 at 48 h [2] does the source give for `NCCCCc1ccc(-c2ccc(CCCCN)s2)s1` here?
Answer: Its CC50 at 48 h is 26.5 µM.

Question: What about the IC50 [1, 5] of the same molecule?
Answer: Its IC50 is 0.0819 µM.

Question: Which results are given for `BrCCCc1ccc(-c2ccc(-c3ccc(CCCBr)s3)s2)s1`?
Answer: CC50 at 48 h [2]: > 200 µM; IC50 [1, 5]: 6.64 µM

Question: For `O=C(NCCN1CCCCC1)c1cc(F)cc(C(F)(F)F)c1`, which CC50 at 48 h [2] is on record?
Answer: The CC50 at 48 h was 1370 µM.

Question: And the IC50 [1, 5]?
Answer: The IC50 was 10.6 µM.

Question: And the IC50 [3]?
Answer: Its IC50 is 72 µM.

Question: With `NCCCCc1ccc(-c2cccs2)s1` as the molecule, how does the IC50 [1] read?
Answer: The IC50 was “Not Active”.

Question: With `O=C(NCCc1cccs1)c1cc(F)cc(C(F)(F)F)c1` as the molecule, how does the IC50 [1, 5] read?
Answer: The IC50 was 0.22 µM.

Question: Which CC50 at 48 h [2] does the source give for `BrCCCCc1ccc(-c2ccc(-c3cccs3)s2)s1` here?
Answer: Its CC50 at 48 h is 23.8 µM.

Question: What about the IC50 [1, 5] of the same molecule?
Answer: The IC50 was 11.4 µM.

Question: With `NCCCCc1ccc(-c2ccc(-c3ccc(-c4cccs4)s3)s2)s1` as the molecule, how does the IC50 [1] read?
Answer: The IC50 was “Not Active”.

Question: For `[N-]=[N+]=NCCCc1ccc(-c2ccc(-c3ccc(-c4cccs4)s3)s2)s1`, which CC50 at 48 h [2] is on record?
Answer: Its CC50 at 48 h is > 100 µM.

Question: What about the IC50 [1, 5] of the same molecule?
Answer: Its IC50 is 46.1 µM.

Question: With `O=C(NCCCc1ccc(-c2ccc(CCCNC(=O)c3ccccc3Cl)s2)s1)c1ccccc1Cl` as the molecule, how does the IC50 [1] read?
Answer: The IC50 was “Not Active”.

Question: With `[N-]=[N+]=NCCCCc1ccc(-c2ccc(-c3ccc(-c4ccc(CCCCN=[N+]=[N-])s4)s3)s2)s1` as the molecule, how does the IC50 [1] read?
Answer: Its IC50 is “Not Active”.

Question: With `[N-]=[N+]=NCCCCc1ccc(-c2ccc(-c3cccs3)s2)s1` as the molecule, how does the CC50 at 48 h [2] read?
Answer: The CC50 at 48 h was > 200 µM.

Question: And the IC50 [1, 5]?
Answer: Its IC50 is 11.1 µM.

Question: Which results are given for `O=C(NCCCc1cccs1)c1cc(F)cc(C(F)(F)F)c1`?
Answer: CC50 at 48 h [2]: 40.2 µM; IC50 [1, 5]: 7.24 µM

Question: Which IC50 [1] does the source give for `NCCCc1ccc(-c2ccc(CCCN)s2)s1` here?
Answer: The IC50 was “Not Active”.

Question: With `BrCCCc1ccc(-c2ccc(CCCBr)s2)s1` as the molecule, how does the IC50 [1] read?
Answer: The IC50 was “Not Active”.

Question: For `NCCCc1ccc(-c2ccc(-c3ccc(-c4cccs4)s3)s2)s1`, which CC50 at 48 h [2] is on record?
Answer: The CC50 at 48 h was > 200 µM.

Question: What about the IC50 [1, 5] of the same molecule?
Answer: The IC50 was 0.171 µM.

Question: What about the IC50 [3] of the same molecule?
Answer: The IC50 was 0.768 µM.

Question: Which CC50 at 48 h [2] does the source give for `NCCCCc1ccc(-c2ccc(-c3ccc(CCCCN)s3)s2)s1` here?
Answer: The CC50 at 48 h was 13 µM.

Question: And the IC50 [1, 5]?
Answer: The IC50 was 0.037 µM.

Question: What about the IC50 [3] of the same molecule?
Answer: The IC50 was 3.29 µM.

Question: For `BrCCCc1ccc(-c2ccc(-c3ccc(-c4cccs4)s3)s2)s1`, which CC50 at 48 h [2] is on record?
Answer: The CC50 at 48 h was > 200 µM.

Question: What about the IC50 [1, 5] of the same molecule?
Answer: The IC50 was 74.1 µM.

Question: With `[N-]=[N+]=NCCCCc1ccc(-c2ccc(-c3ccc(-c4cccs4)s3)s2)s1` as the molecule, how does the IC50 [1] read?
Answer: Its IC50 is “Not Active”.

Question: Which IC50 [1] does the source give for `BrCCCCc1ccc(-c2ccc(-c3ccc(-c4ccc(CCCCBr)s4)s3)s2)s1` here?
Answer: The IC50 was “Not Active”.

Question: What does the source list for `O=C(NCCCCc1ccc(-c2cccs2)s1)c1cc(F)cc(C(F)(F)F)c1`?
Answer: CC50 at 48 h [2]: 27.4 µM; IC50 [1, 5]: 19.8 µM

Question: Which results are given for `NCCCCc1ccc(-c2ccc(-c3cccs3)s2)s1`?
Answer: Ratio IC50 [4]: 1000; CC50 at 48 h [2]: 13.3 µM; IC50 [1, 5]: 0.029 µM; IC50 [3]: 1.24 µM

Question: Which IC50 [1] does the source give for `O=C(NCCCc1ccc(-c2ccc(-c3cccs3)s2)s1)c1cc(F)cc(C(F)(F)F)c1` here?
Answer: The IC50 was “Not Active”.

Question: With `BrCCCCc1ccc(-c2ccc(-c3ccc(CCCCBr)s3)s2)s1` as the molecule, how does the CC50 at 48 h [2] read?
Answer: The CC50 at 48 h was > 200 µM.

Question: And the IC50 [1, 5]?
Answer: Its IC50 is 0.696 µM.

Question: For `O=C(NCC(c1cccs1)N1CCCC1)c1cc(F)cc(C(F)(F)F)c1` (stereo not drawn), which CC50 at 48 h [2] is on record?
Answer: Its CC50 at 48 h is 239 µM.

Question: And the IC50 [1, 5]?
Answer: The IC50 was 6.41 µM.

Question: Which IC50 [1] does the source give for `[N-]=[N+]=NCCCCc1ccc(-c2ccc(-c3ccc(CCCCN=[N+]=[N-])s3)s2)s1` here?
Answer: The IC50 was “Not Active”.

Question: Which IC50 [1] does the source give for `O=C(NCCCc1ccc(-c2ccc(CCCNC(=O)c3cc(F)cc(C(F)(F)F)c3)s2)s1)c1cc(F)cc(C(F)(F)F)c1` here?
Answer: The IC50 was “Not Active”.

Question: Which results are given for `[N-]=[N+]=NCCCc1ccc(-c2ccc(-c3cccs3)s2)s1`?
Answer: CC50 at 48 h [2]: > 200 µM; IC50 [1, 5]: 23 µM

Question: With `O=C(NCCCCc1cccs1)c1cc(F)cc(C(F)(F)F)c1` as the molecule, how does the CC50 at 48 h [2] read?
Answer: The CC50 at 48 h was 43.5 µM.

Question: What about the IC50 [1, 5] of the same molecule?
Answer: The IC50 was 4.73 µM.

Question: With `O=C(NCCCc1ccc(-c2cccs2)s1)c1cc(F)cc(C(F)(F)F)c1` as the molecule, how does the CC50 at 48 h [2] read?
Answer: The CC50 at 48 h was 46.7 µM.

Question: What about the IC50 [1, 5] of the same molecule?
Answer: The IC50 was 42.1 µM.

Question: For `O=C(NCCCCc1ccc(-c2ccc(-c3cccs3)s2)s1)c1cc(F)cc(C(F)(F)F)c1`, which IC50 [1] is on record?
Answer: Its IC50 is “Not Active”.

Question: Which IC50 [1] does the source give for `O=C(NCCCc1ccc(-c2ccc(CCCNC(=O)c3cc(O)cc(O)c3)s2)s1)c1cc(O)cc(O)c1` here?
Answer: Its IC50 is “Not Active”.

Question: For `O=C(NCCCCc1ccc(-c2ccc(-c3ccc(CCCCNC(=O)c4cc(F)cc(C(F)(F)F)c4)s3)s2)s1)c1cc(F)cc(C(F)(F)F)c1`, which IC50 [1] is on record?
Answer: The IC50 was “Not Active”.

Question: With `O=C(NCCCCc1ccc(-c2ccc(CCCCNC(=O)c3cc(F)cc(C(F)(F)F)c3)s2)s1)c1cc(F)cc(C(F)(F)F)c1` as the molecule, how does the IC50 [1] read?
Answer: Its IC50 is “Not Active”.
